Data from article PMC11877520, “Anthelmintic Potential of Conjugated Long-Chain Fatty Acids Isolated from the Bioluminescent Mushroom Neonothopanus gardneri” (Journal of Natural Products, 2025).
“Also recorded” adds a separate entry of the source. Like-named read-outs stand apart in the source and are kept apart here.

Legend:
[1] = Cytotoxicity on Vero cells (MTT); assay type: cell-based; details: chlorocebus sabaeus; Vero cells, 72 h, MTT, 6.25–200 μM tested; read-out: Vero cell CC50
Description: (§1) The S. mansoni (BH strain) life cycle was sustained by passage through Biomphalaria glabrata snails and Swiss mice at the Research Center on Neglected Diseases (Guarulhos University, SP, Brazil). Vero cells from the American Type Culture Collection (ATCC) were cultured in Dulbecco’s modified Eagle medium (DMEM) supplemented with 10% heat-inactivated fetal calf serum and 2 mM L-glutamine (Vitrocell, Campinas, SP, Brazil). C. elegans (strain N2) was maintained at 22 °C on nematode growth medium (NGM) agar seeded with Escherichia coli strain OP50, following standard protocols.[26]
(§2) Cytotoxicity was assessed using a previously established method.[20],[28] Cells were plated in 96-well plates and treated with test compounds (6.25–200 μM) and doxorubicin (DXR) at 10 μM as a positive control for 72 h. Cell viability was determined using an MTT solution, and absorbance was measured at 595 nm using a microplate spectrophotometer. The assay was performed in triplicate, and the results are expressed as a percentage of the control.
(§3) Statistical analysis was conducted using GraphPad Prism 8.0. CE50 and CC50 values were determined from sigmoid dose–response curves. Selectivity indices were calculated by dividing CC50 values obtained on Vero cells by CC50 values determined on S. mansoni.[30]

Vero cells = test: Cytotoxicity on Vero cells (MTT); assay type: cell-based; details: for SI (male worms), selectivity index SI = CC50/EC50: Vero CC50 / S. mansoni male EC50
Description: as §1, §2, §3

Schistosoma mansoni = test: In vitro antischistosomal assay on adult schistosomes (parasite viability by microscope); assay type: cell-based, Schistosoma mansoni (BH strain); details: for EC50: Schistosoma mansoni
Description: The in vitro antischistosomal potential of compounds 1–5 was evaluated at various concentrations on S. mansoni (male and female) to determine their effective concentrations at 50% (EC50). Praziquantel (PZQ) was employed as a positive control, while vehicle-treated parasites (0.5% DMSO) were a negative control. […] The S. mansoni (BH strain) life cycle was sustained by passage through Biomphalaria glabrata snails and Swiss mice at the Research Center on Neglected Diseases (Guarulhos University, SP, Brazil). Vero cells from the American Type Culture Collection (ATCC) were cultured in Dulbecco’s modified Eagle medium (DMEM) supplemented with 10% heat-inactivated fetal calf serum and 2 mM L-glutamine (Vitrocell, Campinas, SP, Brazil). C. elegans (strain N2) was maintained at 22 °C on nematode growth medium (NGM) agar seeded with Escherichia coli strain OP50, following standard protocols.[26] The in vitro antischistosomal assay followed established procedures.[27] Adult schistosomes from infected mice were exposed to test samples (0.78–50 μM) in RPMI 1640 medium supplemented with 5% heat-inactivated fetal calf serum, penicillin (100 U/mL), and streptomycin (100 μg/mL) in a 24-well culture plate. Test samples, including PZQ, were dissolved in DMSO and tested in triplicate with experiments repeated three times. A BEL Engineering microscope assessed parasite viability at 24, 48, and 72 h. Statistical analysis was conducted using GraphPad Prism 8.0. CE50 and CC50 values were determined from sigmoid dose–response curves. Selectivity indices were calculated by dividing CC50 values obtained on Vero cells by […].[30]

Caenorhabditis elegans = test: Toxicity assay with C. elegans (viability by mobility and form); assay type: in vivo, Caenorhabditis elegans (strain N2); details: L4-stage worms, 24 h, 25 to 200 μM
Description: as §1
Toxicity assays with C. elegans were performed as previously described.[29] For 24 h, 26 L4-stage worms were exposed to samples at concentrations ranging from 25 to 200 μM, including levamisole (LVZ) at 10 μM as the positive control. Viability was assessed based on mobility and form using an inverted microscope, with experiments repeated three times.

[2] = adult female worms, in vitro, 72 h, 0.78–50 μM tested, read-out: S. mansoni female EC50
[3] = adult male worms, in vitro, 72 h, 0.78–50 μM tested, read-out: S. mansoni male EC50
[4] = adult schistosomes, ex vivo / in vitro, read-out: EC50 against S. mansoni (sex not specified)

EC50 (Schistosoma mansoni; [2]) [µM] | EC50 (Schistosoma mansoni; [3]) [µM] | EC50 (Schistosoma mansoni; [4]) [µM] | SMILES | CC50 at 72 h [1] [µM] | SI (female worms), selectivity index SI = CC50/EC50 (Vero cells; Vero CC50 / S. mansoni female EC50) | SI (male worms), selectivity index SI = CC50/EC50 (Vero cells) | Toxicity to mammalian cells (in words) (Vero cells; Vero cells, 72 h) | Toxicity to C. elegans (in words) (Caenorhabditis elegans) | Antiparasitic activity against S. mansoni (in words) (Schistosoma mansoni; adult schistosomes, in vitro, up to 50 μM)
32.6 ± 5.1 | 8.3 ± 2.4 | < 10 | CCCCCCCC/C=C\[C@@H](O)[C@H](O)CCCCCC(=O)O (stereo in doubt) [Compound 3, (7R,8R,9Z)-7,8-dihydroxyoctadec-9-enoic acid] | > 200 | >6.13 | >24.09 | no toxicity | did not show toxicity; also recorded: no toxicity | –
> 50 | > 50 | > 50 | CCCCC[C@H](O)[C@@H](O)/C=C/C=C/C(=O)CCCCCC(=O)O [Compound 1, (8E,10E,12S,13S)-12,13-dihydroxy-7-oxo-octadeca-8,10-dienoic acid] | – | – | – | – | – | –
> 50 | > 50 | > 50 | CCCCCC(=O)/C=C/C=C/[C@H](O)[C@@H](O)CCCCCC(=O)O [Compound 2, (7S,8S,9E,11E)-7,8-dihydroxy-13-oxo-octadeca-9,11-dienoic acid] | – | – | – | – | – | –
> 50 | > 50 | > 50 | O=C(O)/C=C/CCCCCCC(=O)O [Compound 4, (2E)-dec-2-ene-1,10-dioic acid] | – | – | – | – | – | –
> 50 | > 50 | > 50 | CC1(C)CCC(=O)[C@@]23C(=O)OC4OCC(=CC[C@@H]12)[C@H]43 (some centres unmarked) [Compound 5, marasmeno-1,15-dione] | – | – | – | – | – | no antiparasitic activity was detected
1.2 ± 0.1 | 0.9 ± 0.1 | < 2 | O=C(C1CCCCC1)N1CC(=O)N2CCc3ccccc3C2C1 (centres unmarked) [PZQ, Praziquantel, reference compound] | > 200 | – | >250 | – | – | –
